Reference: patent US10945932B2, “Prebiotic oral care compositions containing carboxylic acids” (COLGATE-PALMOLIVE COMPANY, priority 2013, dated 2021)

Tests used:
Format in all cases: cell-based
[1] = test system: beneficial oral bacteria and pathogenic oral bacteria; assay: Metabolic activity, prebiotic effect over the whole panel; conditions: 48 hrs; threshold value of 2
Method: (§1) The extent of metabolic activity of the tested bacteria in the presence of the above-mentioned acids after 24 hours and 48 hours was investigated through a high throughput phenotype microarray system (PM) for microbial cells (Biolog Inc.). Each PM can contain up to 95 different biochemical compounds (e.g. organic acids) that may act as substrates for bacteria as well as one negative control, not containing the substrates. Microarray plates were used in which the different wells of each plate were pre-loaded (by the manufacturer, Biolog Inc.) with different organic acids to be tested. Each bacterial species was tested using a separate microarray plate. Thus, a single bacterial species was tested with a variety of organic acids on each particular plate. The microarrays are based on redox technology, using cell respiration as a universal reporter. […] The observation of this color change indicates which of the substrates improve the metabolic activity and health of the cells.
(§2) Each bacterial species was collected from blood agar plates (incubated for 48 hours anaerobically at 37° C.) and transferred to an IF-0 Base inoculation fluid (Biolog Inc.), which is a nutritionally poor medium. […] A 1:5 dilution of this suspension was prepared by mixing 3 mL of the 42% transmittance cell suspension with 15 mL of an inoculation fluid (which inoculation fluid was formed by mixing 11.6 mL sterile water, 62.5 mL IF-0 base inoculation fluid and 0.9 mL of the tetrazolium dye “Biolog Redox Dye mix D”), resulting in a final cell density which was equal to 85% transmittance using a BioRad SmartSpec 3000 Photometer. For each of the acids tested, the microarray plate (obtained from the supplier (Biolog Inc.) with acid already present in the relevant wells in powder form) was directly inoculated with 100 μL/well of this 85% transmittance cell suspension.
(§3) All plates were incubated in an anaerobic atmosphere at 37° C. Color changes were measured spectrophotometrically at 492 nm (Thermo Scientific Multiskan Ascent) at 24 hrs and 48 hrs using the same plate at both time points.
(§4) The controls were also carried out three times, as above.

[2] = test system: Tannerella forsythia; assay: Metabolic activity, Biolog phenotype microarray; conditions: T forsythia
Method: as §1, §2, §3, §4

[3] = test system: Porphyromonas gingivalis; assay: Metabolic activity, Biolog phenotype microarray; conditions: P gingivalis
Method: as §1, §2, §3, §4

[4] = test system: Streptococcus mitis; assay: Metabolic activity, Biolog phenotype microarray; conditions: S mitis
Method: as §1, §2, §3, §4

[5] = test system: Streptococcus salivarius; assay: Metabolic activity, Biolog phenotype microarray; conditions: S salivarius
Method: as §1, §2, §3, §4

[6] = test system: Streptococcus mutans; assay: Metabolic activity, Biolog phenotype microarray; conditions: S mutans
Method: as §1, §2, §3, §4

[7] = test system: Capnocytophaga sputigena; assay: Metabolic activity, Biolog phenotype microarray; conditions: C sputigena
Method: as §1, §2, §3, §4

[8] = test system: Prevotella intermedia; assay: Metabolic activity, Biolog phenotype microarray; conditions: P intermedia
Method: as §1, §2, §3, §4

[9] = test system: Aggregatibacter actinomycetemcomitans; assay: Metabolic activity, Biolog phenotype microarray; conditions: A actinomycetemcomitans
Method: as §1, §2, §3, §4

[10] = test system: Fusobacterium nucleatum; assay: Metabolic activity, Biolog phenotype microarray; conditions: F nucleatum
Method: as §1, §2, §3, §4

[11] = test system: Actinomyces viscosus; assay: Metabolic activity, Biolog phenotype microarray; conditions: A viscosus
Method: as §1, §2, §3, §4

[12] = test system: Actinomyces naeslundii; assay: Metabolic activity, Biolog phenotype microarray; conditions: A naeslundii
Method: as §1, §2, §3, §4

[13] = test system: Streptococcus sobrinus; assay: Metabolic activity, Biolog phenotype microarray; conditions: S sobrinus
Method: as §1, §2, §3, §4

[14] = test system: Veillonella parvula; assay: Metabolic activity, Biolog phenotype microarray; conditions: V parvula
Method: as §1, §2, §3, §4

[15] = test system: Streptococcus gordonii; assay: Metabolic activity, Biolog phenotype microarray; conditions: S gordonii
Method: as §1, §2, §3, §4

[16] = test system: Streptococcus sanguinis; assay: Metabolic activity, Biolog phenotype microarray; conditions: S sanguinis
Method: as §1, §2, §3, §4

SMILES: O=C(O)[C@H](O)[C@@H](O)[C@H](O)[C@H](O)CO[C@H]1O[C@H](CO)[C@H](O)[C@H](O)[C@H]1O [Melibionic acid, melibionic acid]
- prebiotic effect (metabolic activity) [1]: exhibited prebiotic effects
- metabolic activity, OD at 492 nm divided by OD of control (control = 1) ([2]; 24 hrs): 1.0848
- metabolic activity, OD at 492 nm divided by OD of control (control = 1) ([2]; 48 hrs): 1.1865
- metabolic activity, OD at 492 nm divided by OD of control (control = 1) ([3]; 24 hrs): 0.8689
- metabolic activity, OD at 492 nm divided by OD of control (control = 1) ([3]; 48 hrs): 0.9301
- metabolic activity, OD at 492 nm divided by OD of control (control = 1) ([4]; 24 hrs): 1.0443
- metabolic activity, OD at 492 nm divided by OD of control (control = 1) ([4]; 48 hrs): 0.9983
- metabolic activity, OD at 492 nm divided by OD of control (control = 1) ([5]; 24 hrs): 0.9984
- metabolic activity, OD at 492 nm divided by OD of control (control = 1) ([5]; 48 hrs): 0.9237
- metabolic activity, OD at 492 nm divided by OD of control (control = 1) ([6]; 24 hrs): 1.1010
- metabolic activity, OD at 492 nm divided by OD of control (control = 1) ([6]; 48 hrs): 1.0362
- metabolic activity, OD at 492 nm divided by OD of control (control = 1) ([7]; 24 hrs): 0.6213
- metabolic activity, OD at 492 nm divided by OD of control (control = 1) ([7]; 48 hrs): 0.9143
- metabolic activity, OD at 492 nm divided by OD of control (control = 1) ([8]; 24 hrs): 1.0625
- metabolic activity, OD at 492 nm divided by OD of control (control = 1) ([8]; 48 hrs): 1.0988
- metabolic activity, OD at 492 nm divided by OD of control (control = 1) ([9]; 24 hrs): 0.9361
- metabolic activity, OD at 492 nm divided by OD of control (control = 1) ([9]; 48 hrs): 0.8912
- metabolic activity, OD at 492 nm divided by OD of control (control = 1) ([10]; 24 hrs): 0.9131
- metabolic activity, OD at 492 nm divided by OD of control (control = 1) ([10]; 48 hrs): 0.8299
- metabolic activity, OD at 492 nm divided by OD of control (control = 1) ([11]; 24 hrs): 1.6342
- metabolic activity, OD at 492 nm divided by OD of control (control = 1) ([11]; 48 hrs): 2.0904
- metabolic activity, OD at 492 nm divided by OD of control (control = 1) ([12]; 24 hrs): 1.2539
- metabolic activity, OD at 492 nm divided by OD of control (control = 1) ([12]; 48 hrs): 1.3926
- metabolic activity, OD at 492 nm divided by OD of control (control = 1) ([13]; 24 hrs): 1.1366
- metabolic activity, OD at 492 nm divided by OD of control (control = 1) ([13]; 48 hrs): 1.1222
- metabolic activity, OD at 492 nm divided by OD of control (control = 1) ([14]; 24 hrs): 0.8685
- metabolic activity, OD at 492 nm divided by OD of control (control = 1) ([14]; 48 hrs): 0.6981
- metabolic activity, OD at 492 nm divided by OD of control (control = 1) ([15]; 24 hrs): 1.0326
- metabolic activity, OD at 492 nm divided by OD of control (control = 1) ([15]; 48 hrs): 0.9389
- metabolic activity, OD at 492 nm divided by OD of control (control = 1) ([16]; 24 hrs): 1.0430
- metabolic activity, OD at 492 nm divided by OD of control (control = 1) ([16]; 48 hrs): 1.0832
